Measurements published in patent US11453897B2, “Method for producing aminobenzoic acid or an aminobenzoic acid derivative product” (Covestro Intellectual Property GmbH & Co. KG, priority 2018, dated 2022).

Assay: Dissolution of calcium ortho-aminobenzoate by salt exchange with ammonium ions (ammonium carbonate stock solution)
Assay type: physicochemical
Procedure: 48.0 g of anhydrous calcium chloride was added to 1.00 L of fermentation broth. The pH was adjusted to a value of 7.0 by adding hydrochloric acid. 100 g of ortho-aminobenzoic acid (dissolved in sodium hydroxide solution at pH 7.0) was then added to this mixture by adding 200 mL of oAB STOCK SOLUTION. There was briefly precipitation of calcium ortho-aminobenzoate. The concentration of dissolved ortho-aminobenzoic acid measured in the aqueous phase was 18.0 g/L. The solids fraction of the mixture was filtered off and dried at 80° C. for 48 h. In this way, 110 g of dried solid material was obtained. 20.0 g of that was added to 50.0 mL of AMMONIUM STOCK SOLUTION 1, the mixture was stirred and the concentration of dissolved ortho-aminobenzoic acid was determined. The latter was 146 g/L.
48.0 g of anhydrous calcium chloride was added to 800 mL of water. The pH was adjusted to a value of 7.0 by adding hydrochloric acid. […] The concentration of dissolved ortho-aminobenzoic acid measured in the aqueous phase was 18.0 g/L. The solids fraction of the mixture was filtered off and dried at 80° C. for 48 h. […] 20.0 g of that was added to 25.0 mL of AMMONIUM STOCK SOLUTION 2, the mixture was stirred and the concentration of dissolved ortho-aminobenzoic acid was determined.

Question: Which “concentration of dissolved ortho-aminobenzoic acid after salt exchange” value (20.0 g dried solid in 25.0 mL ammonium carbonate 210 g/L (Example 2)) does the source give for calcium ortho-aminobenzoate here?
Answer: The value was 175000 µg/mL.

Question: And the “concentration of dissolved ortho-aminobenzoic acid after salt exchange” value (20.0 g dried solid in 50.0 mL ammonium carbonate 105 g/L (Example 1))?
Answer: The value was 146000 µg/mL.
